How the values were obtained:
[1] = molecular target: Phenylalanine--tRNA ligase (Staphylococcus aureus); assay: Compound was evaluated for the inhibitory activity against Staphylococcus aureus phenylalanyl-tRNA synthetase
[2] = molecular target: Phenylalanine--tRNA ligase (Escherichia coli); assay: Compound was evaluated for the inhibitory activity against Escherichia coli phenylalanyl-tRNA synthetase

SMILES: O=C(Nc1ccc(Cl)c(Cl)c1)[C@H]1[C@@H](C(=O)O)C2(O[C@H]1c1ccccc1)C(=O)c1ccccc1C2=O [4-(3,4-dichlorophenylcarbamoyl)-1',3'-dioxo-5-phenylspiro[tetrahydrofuran-2,2'-(2',3'-dihydro-1'H-indene)]-3-carboxylic acid]
- IC50 [1]: 33 µM
- IC50 [2]: 11 µM

— BindingDB's records for doi:10.1016/j.bmcl.2003.11.082 (Cubist Pharmaceuticals, 2004)
